For 39 molecules, IC50 and melting point results are on record in patent US20220298135A1, “5-HETEROARYL-PYRIDIN-2-AMINE COMPOUNDS AS NEUROPEPTIDE FF RECEPTOR ANTAGONISTS” (Domain Therapeutics, priority 2019, published 2022).

In data set [1] the target is T1, human NPFFR1 (hNPFFR1) receptor (Homo sapiens, UniProt Q9GZQ6).
T1 construct: expressed in transfected cells; host or cells: HEK-293 T cells, transient co-transfection with polyethylenimine
The experiment in a line: Human NPFFR1 evaluation using BRET biosensors (antagonist IC50). The data set is classed as cell-based. The note with it: hNPFFR1 transiently over-expressed in HEK-293 T cells; BRET signal; stimulation by EC80 RFRP-3. An outline of the steps: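 HEK-293T cells co-transfected with receptor, GαoB and Gi-effector BRET biosensor pair, assayed 48 h later. Compound 10 min, then EC80 RFRP-3 with 10 min luminescence read; IC50 from 20-concentration variable-slope fit, duplicate, two independent experiments.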
A general note: Bioluminescence resonance energy transfer reports proximity on the nanometre scale.

T1 sequence (Q9GZQ6 whole entry): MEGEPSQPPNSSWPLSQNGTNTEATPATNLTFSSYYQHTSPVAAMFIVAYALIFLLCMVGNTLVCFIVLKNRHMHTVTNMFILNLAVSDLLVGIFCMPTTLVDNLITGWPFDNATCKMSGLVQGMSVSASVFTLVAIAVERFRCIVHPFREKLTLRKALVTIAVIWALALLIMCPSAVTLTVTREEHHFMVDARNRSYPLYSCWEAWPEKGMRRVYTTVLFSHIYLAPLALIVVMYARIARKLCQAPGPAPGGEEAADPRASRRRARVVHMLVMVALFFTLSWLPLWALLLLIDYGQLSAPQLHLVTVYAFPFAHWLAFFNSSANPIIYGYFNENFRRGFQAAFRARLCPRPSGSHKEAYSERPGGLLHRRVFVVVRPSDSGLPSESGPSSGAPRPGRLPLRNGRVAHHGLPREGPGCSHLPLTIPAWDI

Take `CCc1nc(N)ccc1-c1ccccc1-c1ccc(F)nc1.Cl` [Example 87, 6-ethyl-5-(2-(6-fluoropyridin-3-yl)phenyl)pyridin-2-amine]: the melting point (as a rule, the temperature of the solid-liquid transition) is more than 250 °C. Also, the IC50 – broadly, the point on the concentration scale where inhibition reaches its midpoint – in data set [1] is 100 to 1000 nM.

On to `CCc1nc(N)ccc1-c1ccccc1-c1ccc(O)nc1.Cl` [Example 88, 5-(2-(6-amino-2-ethylpyridin-3-yl)phenyl)pyridin-2-ol], for which the melting point is 95 to 120 °C. In data set [1], the IC50 was 100 to 1000 nM.

`CCc1nc(N)ccc1-c1ccccc1-c1ccc(OC)nc1` [Example 89, 6-ethyl-5-(2-(6-methoxypyridin-3-yl)phenyl)pyridin-2-amine] gave a melting point of 165 to 180 °C. Moreover, the IC50 in data set [1] fell in the range of 100 to 1000 nM.

Regarding `CCc1nc(N)ccc1-c1cccc2ccc(C)nc12.Cl` [Example 90, 6-ethyl-5-(2-methylquinolin-8-yl)pyridin-2-amine], the melting point was in the range of 110 to 150 °C. The same molecule gave an IC50 in data set [1] of less than 100 nM.

In turn, `CCc1nc(N)ccc1-c1cccc2c(C)ccnc12.Cl` [Example 91, 6-ethyl-5-(4-methylquinolin-8-yl)pyridin-2-amine] showed a melting point of more than 250 °C. In addition, in data set [1], the IC50 fell in the range of 100 to 1000 nM.

With `CCc1nc(N)ccc1-c1cccc2ccc(N)nc12.Cl.Cl` [Example 92, 8-(6-amino-2-ethylpyridin-3-yl)quinolin-2-amine], the melting point is 200 to 250 °C. Also, the IC50 in data set [1] lay in the range of 100 to 1000 nM.

The molecule `CCc1nc(N)ccc1-c1c(C)ccc2cccnc12.Cl` [Example 93, 6-ethyl-5-(7-methylquinolin-8-yl)pyridin-2-amine] returned a melting point of 90 to 130 °C. Also, the IC50 in data set [1] is less than 100 nM.

For `CCOc1ccc2cccc(-c3ccc(N)nc3CC)c2n1.Cl` [Example 94, 5-(2-ethoxyquinolin-8-yl)-6-ethylpyridin-2-amine], the melting point is 35 to 70 °C. The IC50 in data set [1] was less than 100 nM.

On to `CCc1nc(N)ccc1-c1cccc2cc(C)cnc12.Cl` [Example 95, 6-ethyl-5-(3-methylquinolin-8-yl)pyridin-2-amine], for which the melting point was more than 250 °C. The molecule also showed a half-inhibitory concentration (IC50) in data set [1] of less than 100 nM.

The molecule `CCc1nc(N)ccc1-c1ccc(C)c2cccnc12.Cl` [Example 96, 6-ethyl-5-(5-methylquinolin-8-yl)pyridin-2-amine] registered a melting point of more than 250 °C. This molecule registered an IC50 in data set [1] of 100 to 1000 nM.

Consider `CCc1nc(N)ccc1-c1cccc2cc(F)cnc12.Cl` [Example 97, 6-ethyl-5-(3-fluoroquinolin-8-yl)pyridin-2-amine], for which the melting point lay in the range of 210 to 245 °C. This molecule gave an IC50 in data set [1] of less than 100 nM.

Take `CCc1nc(N)ccc1-c1c(OC)ccc2cccnc12.Cl` [Example 98, 6-ethyl-5-(7-methoxyquinolin-8-yl)pyridin-2-amine]: the melting point fell in the range of 230 to 250 °C. In data set [1], this molecule gave an IC50 of less than 100 nM.

`CCc1nc(N)ccc1-c1cccc2ccc(C(F)(F)F)nc12.Cl` [Example 99, 6-ethyl-5-(2-(trifluoromethyl)quinolin-8-yl)pyridin-2-amine] displayed a melting point of 90 to 130 °C. This molecule registered a half-inhibitory concentration (IC50) in data set [1] of less than 100 nM.

Molecule `CCc1nc(N)ccc1-c1nccc2cccnc12.Cl` [Example 100, 6-ethyl-5-(1,7-naphthyridin-8-yl)pyridin-2-amine] came in with a melting point of 160 to 200 °C. The 50% inhibitory concentration (IC50) in data set [1] is more than 1000 nM.

`CCc1nc(N)ccc1-c1cccc2nccnc12.Cl` [Example 101, 6-ethyl-5-(quinoxalin-5-yl)pyridin-2-amine] showed a melting point of more than 250 °C. The IC50 in data set [1] is 100 to 1000 nM.

`CCc1nc(N)ccc1-c1cccn2ccnc12.Cl` [Example 102, 6-ethyl-5-(imidazo[1,2-a]pyridin-8-yl)pyridin-2-amine] gave a melting point of 95 to 135 °C. In data set [1], this molecule yielded a concentration for half-maximal inhibition (IC50) of more than 1000 nM.

Molecule `CCc1nc(N)ccc1-c1cccc2nccn12.Cl` [Example 103, 6-ethyl-5-(imidazo[1,2-a]pyridin-5-yl)pyridin-2-amine] gave a melting point of 115 to 155 °C. This molecule also had an IC50 in data set [1] of more than 1000 nM.

The molecule `CCc1nc(N)ccc1-c1cccc2ccnn12.Cl` [Example 104, 6-ethyl-5-(pyrazolo[1,5-a]pyridin-7-yl)pyridin-2-amine] had a melting point of 234 to 243 °C. Further, the IC50 in data set [1] fell in the range of 100 to 1000 nM.

`CCc1nc(N)ccc1-c1c(OC(F)F)ccc2cccnc12.Cl` [Example 105, 5-(7-(difluoromethoxy)quinolin-8-yl)-6-ethylpyridin-2-amine] came in with a melting point of 120 to 160 °C. Also, in data set [1], the IC50 was less than 100 nM.

As for `CCc1nc(N)ccc1-c1cccc2c1NCCC2.Cl` [Example 106, 6-ethyl-5-(1,2,3,4-tetrahydroquinolin-8-yl)pyridin-2-amine], the melting point lay in the range of 147 to 160 °C. The same molecule displayed an IC50 in data set [1] of 100 to 1000 nM.

On to `CCc1nc(N)ccc1-c1c(F)ccc2cc(-c3ccccc3)cnc12.Cl` [Example 107, 6-ethyl-5-(7-fluoro-3-phenylquinolin-8-yl)pyridin-2-amine], for which the melting point was more than 250 °C. In addition, the IC50 in data set [1] lay within 100 to 1000 nM.

`CCc1nc(N)ccc1-c1c(F)cc(F)c2cccnc12.Cl` [Example 108, 5-(5,7-difluoroquinolin-8-yl)-6-ethylpyridin-2-amine] showed a melting point of 126 to 136 °C. In data set [1], this molecule had an IC50 of less than 100 nM.

Molecule `CCc1nc(N)ccc1-c1c(C(F)(F)F)ccc2cccnc12.Cl` [Example 109, 6-ethyl-5-(7-(trifluoromethyl)quinolin-8-yl)pyridin-2-amine] had a melting point of 150 to 180 °C. Further, in data set [1], the IC50 is less than 100 nM.

Turning to `CCc1nc(N)ccc1-c1c(F)c(F)cc2cccnc12.Cl` [Example 111, 5-(6,7-difluoroquinolin-8-yl)-6-ethylpyridin-2-amine], the melting point lay in the range of 150 to 190 °C. The molecule further yielded an IC50 in data set [1] of less than 100 nM.

In the case of `CCc1nc(N)ccc1-c1c(F)c(F)cc2cc(O)cnc12.Cl` [Example 112, 8-(6-amino-2-ethylpyridin-3-yl)-6,7-difluoroquinolin-3-ol], the melting point was 204 to 210 °C. Moreover, the IC50 in data set [1] was in the range of 100 to 1000 nM.

The molecule `CCc1nc(N)ccc1-c1cccc2cc3c(nc12)CCCC3.Cl` [Example 113, 6-ethyl-5-(5,6,7,8-tetrahydroacridin-4-yl)pyridin-2-amine] had a melting point of 160 to 172 °C. This molecule had an IC50 in data set [1] of less than 100 nM.

`CCc1nc(N)ccc1-c1cccc2cc3c(nc12)CCN(C)C3.Cl.Cl` [Example 114, 6-ethyl-5-(2-methyl-1,2,3,4-tetrahydrobenzo[b][1,6]naphthyridin-6-yl)pyridin-2-amine]: the melting point was in the range of 197 to 211 °C. The same molecule showed an IC50 in data set [1] of 100 to 1000 nM.

`CCc1nc(N)ccc1-c1cccc2cc3c(nc12)CCC3.Cl` [Example 115, 5-(2,3-dihydro-1H-cyclopenta[b]quinolin-5-yl)-6-ethylpyridin-2-amine] yielded a melting point of 153 to 169 °C. In data set [1], the IC50 is less than 100 nM.

In the case of `CCc1nc(N)ccc1-c1cccc2ccc(C3CCCCC3)nc12.Cl` [Example 118, 5-(2-cyclohexylquinolin-8-yl)-6-ethylpyridin-2-amine], the melting point is 137 to 142 °C. Moreover, in data set [1], the IC50 is less than 100 nM.

In turn, `CCc1nc(N)ccc1-c1cccc2ccc(-c3ccccn3)nc12.Cl` [Example 119, 6-ethyl-5-(2-(pyridin-2-yl)quinolin-8-yl)pyridin-2-amine] had a melting point of 111 to 116 °C. This molecule gave a 50% inhibitory concentration (IC50) in data set [1] of less than 100 nM.

For the molecule `CCc1nc(N)ccc1-c1cccc2ccc(C3(C)CC3)nc12.Cl` [Example 120, 6-ethyl-5-(2-(1-methylcyclopropyl)quinolin-8-yl)pyridin-2-amine], the melting point lay within 90 to 95 °C. For the same molecule, the IC50 in data set [1] lay in the range of 100 to 1000 nM.

For the molecule `CCc1nc(N)ccc1-c1cccc2ccc(C3CCOCC3)nc12.Cl` [Example 121, 6-ethyl-5-(2-(tetrahydro-2H-pyran-4-yl)quinolin-8-yl)pyridin-2-amine], the melting point is 175 to 185 °C. The molecule further showed an IC50 in data set [1] of less than 100 nM.

For the molecule `CCc1nc(N)ccc1-c1cccc2ccc(-c3ccncc3)nc12.Cl` [Example 122, 6-ethyl-5-(2-(pyridin-4-yl)quinolin-8-yl)pyridin-2-amine], the melting point was more than 250 °C. The molecule also registered an IC50 in data set [1] of less than 100 nM.

The molecule `CCc1nc(N)ccc1-c1cccc2ccc(-c3ccc4nccn4c3)nc12.Cl` [Example 123, 6-ethyl-5-(2-(imidazo[1,2-a]pyridin-6-yl)quinolin-8-yl)pyridin-2-amine] had a melting point of 70 to 75 °C. This molecule yielded a half-inhibitory concentration (IC50) in data set [1] of less than 100 nM.

`CCc1nc(N)ccc1-c1cccc2ccc(-c3cnoc3)nc12` [Example 125, 6-ethyl-5-(2-(isoxazol-4-yl)quinolin-8-yl)pyridin-2-amine] registered a melting point of 178 to 182 °C. Besides, the IC50 in data set [1] is less than 100 nM.

`CCc1nc(N)ccc1-c1cccc2ccc(-c3cnccn3)nc12.Cl` [Example 126, 6-ethyl-5-(2-(pyrazin-2-yl)quinolin-8-yl)pyridin-2-amine] came in with a melting point of more than 250 °C. Besides, the IC50 in data set [1] is less than 100 nM.

Regarding `CCc1nc(N)ccc1-c1cccc2ccc(-c3cnccc3C)nc12.Cl` [Example 127, 6-ethyl-5-(2-(4-methylpyridin-3-yl)quinolin-8-yl)pyridin-2-amine], the melting point lay in the range of 180 to 188 °C. The molecule further had an IC50 in data set [1] of less than 100 nM.

The molecule `CCc1nc(N)ccc1-c1cccc2ccc(N3CCOCC3)nc12.Cl` [Example 129, 6-ethyl-5-(2-morpholinoquinolin-8-yl)pyridin-2-amine] gave a melting point of 100 to 150 °C. Moreover, the IC50 in data set [1] is less than 100 nM.

Turning to `CCc1nc(N)ccc1-c1cccc2ccc(N3CCCC3)nc12.Cl` [Example 131, 6-ethyl-5-(2-(pyrrolidin-1-yl)quinolin-8-yl)pyridin-2-amine], the melting point was more than 250 °C. Besides, the IC50 in data set [1] was 100 to 1000 nM.
